Measured values published in ChEMBL document CHEMBL2029279, “Structure-activity relationships and molecular modeling of the N-(3-pivaloyloxy-2-benzylpropyl)-N'-[4-(methylsulfonylamino)benzyl] thiourea template for TRPV1 antagonism” (Bioorg Med Chem Lett, 2012).
Active and inactive are the calls of the source. No cut-off for these calls is given here.

Legend:
[1] = target: Transient receptor potential cation channel subfamily V member 1 (Rattus norvegicus) (UniProt O35433); experiment: Agonist activity at rat TRPV1 expressed in CHO cells assessed as induction of 45Ca2+ uptake at 30 uM relative to capsaicin; assay type: functional, cell-based
[2] = target: T1, Transient receptor potential cation channel subfamily V member 1 (Rattus norvegicus, UniProt O35433); experiment: Displacement of [3H]RTX from rat TRPV1 expressed in CHO cells; assay type: cell-based
[3] = target: T1, Transient receptor potential cation channel subfamily V member 1; experiment: Antagonist activity at rat TRPV1 expressed in CHO cells assessed as inhibition of 45Ca2+ uptake; assay type: functional, cell-based
[4] = target: Transient receptor potential cation channel subfamily V member 1 (Rattus norvegicus) (UniProt O35433); experiment: Antagonist activity at rat TRPV1 expressed in CHO cells assessed as inhibition of 45Ca2+ uptake relative to control; assay type: functional, cell-based; design: scale not given: the % may be the effect or the level left

T1 sequence (O35433 whole entry): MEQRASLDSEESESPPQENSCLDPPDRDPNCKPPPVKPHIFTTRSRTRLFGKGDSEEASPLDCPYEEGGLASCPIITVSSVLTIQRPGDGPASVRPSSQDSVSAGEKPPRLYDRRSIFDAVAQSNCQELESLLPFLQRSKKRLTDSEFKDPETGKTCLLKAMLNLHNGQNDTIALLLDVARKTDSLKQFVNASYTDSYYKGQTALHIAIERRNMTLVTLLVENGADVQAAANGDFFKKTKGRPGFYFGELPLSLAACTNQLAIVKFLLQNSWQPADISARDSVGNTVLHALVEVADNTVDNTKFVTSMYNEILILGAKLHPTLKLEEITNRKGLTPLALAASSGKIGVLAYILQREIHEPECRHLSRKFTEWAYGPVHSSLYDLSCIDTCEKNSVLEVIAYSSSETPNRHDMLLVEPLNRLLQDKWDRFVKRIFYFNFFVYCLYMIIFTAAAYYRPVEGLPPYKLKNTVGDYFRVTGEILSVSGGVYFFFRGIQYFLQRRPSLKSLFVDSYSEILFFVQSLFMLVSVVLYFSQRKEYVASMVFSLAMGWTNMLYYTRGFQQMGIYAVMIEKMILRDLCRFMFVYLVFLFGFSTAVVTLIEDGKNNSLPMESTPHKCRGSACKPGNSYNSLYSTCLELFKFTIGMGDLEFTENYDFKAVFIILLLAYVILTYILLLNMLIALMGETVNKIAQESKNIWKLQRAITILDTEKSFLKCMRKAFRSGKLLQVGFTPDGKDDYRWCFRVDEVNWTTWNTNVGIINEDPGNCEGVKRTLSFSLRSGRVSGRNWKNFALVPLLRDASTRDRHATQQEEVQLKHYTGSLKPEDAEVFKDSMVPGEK
Transient receptor potential cation channel subfamily V member 1 (Rattus norvegicus), sequence (O35433 whole entry): as above

Compound: CC(C)(C)C(=O)OCC(C/N=C(\S)NCc1ccc(NS(C)(=O)=O)cc1)Cc1ccc(C(C)(C)C)cc1 (stereo unspecified)
- Activity [1]: 40%

Compound: CC(C)(C)C(=O)OCC(CCc1ccc(C(C)(C)C)cc1)NC(=S)NCc1ccc(NS(C)(=O)=O)cc1 (stereo unspecified)
- Ki [2]: 366 nM
- Ki [3]: 286 nM
- Activity [1]: inactive

Compound: Cc1ccc(CCC(COC(=O)C(C)(C)C)NC(=S)NCc2ccc(NS(C)(=O)=O)cc2)cc1C (stereo unspecified)
- Ki [2]: 390 nM
- Ki [3]: 33.7 nM
- Activity [1]: 5%

Compound: CC(C)(C)C(=O)OCC(CNC(=S)NCc1ccc(NS(C)(=O)=O)cc1)c1ccc(C(C)(C)C)cc1 (stereo unspecified)
- Ki [2]: 143 nM
- Ki [3]: 91 nM
- Activity [1]: inactive

Compound: Cc1ccc(CC(COC(=O)C(C)(C)C)NC(=S)NCc2ccc(NS(C)(=O)=O)c(F)c2)cc1C (stereo unspecified)
- Ki [2]: 233 nM
- Ki [3]: 650 nM
- Activity [1]: inactive

Compound: Cc1ccc(CCC(COC(=O)C(C)(C)C)NC(=S)NCc2ccc(NS(C)(=O)=O)c(F)c2)cc1C (stereo unspecified)
- Ki [2]: 120 nM
- Ki [3]: 111 nM
- Activity [1]: inactive

Compound: CC(C)(C)C(=O)OCC(Cc1ccc(C(C)(C)C)cc1)NC(=S)NCc1ccc(NS(C)(=O)=O)cc1 (stereo unspecified)
- Activity [4]: 31%
- Ki [2]: 416 nM
- Activity [1]: 8%

Compound: Cc1ccc(CC(COC(=O)C(C)(C)C)NC(=S)NCc2ccc(NS(C)(=O)=O)cc2)cc1C (stereo unspecified)
- Activity [4]: 48%
- Ki [2]: 580 nM
- Activity [1]: 19%

Compound: CC(C)(C)C(=O)OCC(NC(=S)NCc1ccc(NS(C)(=O)=O)cc1)c1ccc(C(C)(C)C)cc1 (stereo unspecified)
- Activity [4]: 46%
- Ki [2]: 197 nM
- Ki [3]: 940 nM
- Activity [1]: 46%

Compound: CC(C)(C)C(=O)OCC(CNC(=S)NCc1ccc(NS(C)(=O)=O)c(F)c1)c1ccc(C(C)(C)C)cc1 (stereo unspecified)
- Ki [2]: 69 nM
- Ki [3]: 116 nM
- Activity [1]: inactive

Compound: Cc1ccc(CC(CN/C(S)=N/Cc2ccc(NS(C)(=O)=O)cc2)COC(=O)C(C)(C)C)cc1C (stereo unspecified)
- Activity [1]: 15%

Compound: Cc1ccc(CC(CNC(=S)NCc2ccc(NS(C)(=O)=O)c(F)c2)COC(=O)C(C)(C)C)cc1C (stereo unspecified)
- Activity [1]: inactive

Compound: CC(C)(C)C(=O)OCC(Cc1ccc(C(C)(C)C)cc1)NC(=S)NCc1ccc(NS(C)(=O)=O)c(F)c1 (stereo unspecified)
- Ki [2]: 115 nM
- Ki [3]: 179 nM
- Activity [1]: inactive

Compound: CC(C)(C)C(=O)OCC(NC(=S)NCc1ccc(NS(C)(=O)=O)c(F)c1)c1ccc(C(C)(C)C)cc1 (stereo unspecified)
- Activity [4]: 72%
- Ki [2]: 244 nM
- Ki [3]: 213 nM
- Activity [1]: 35%

Compound: CC(C)(C)C(=O)OCC(CCc1ccc(C(C)(C)C)cc1)NC(=S)NCc1ccc(NS(C)(=O)=O)c(F)c1 (stereo unspecified)
- Ki [2]: 190 nM
- Ki [3]: 152 nM
- Activity [1]: inactive
